Like-named read-outs stand apart in the source and are kept apart here.
Molecular target: T1, urease (Canavalia ensiformis, UniProt P07374)
T1 construct: purchased Siemens Azostix reagent test strip
Type: biochemical
Settings: for urea converted to ammonia: within 60 seconds
Text: In an embodiment, the physiologically acceptable composition may have a pH of substantially 2. […] The capacity of a composition containing urea to produce ammonia toxicity in ruminant animals can be measured with a urease test strip. These strips contain the enzyme urease. Urease is specific to urea and catalyses the breakdown to ammonia, and the strip undergoes a colour change when the urease strip is exposed to ammonia.
These strips contain the enzyme urease and the indicator bromothymol blue. Urease is specific to urea and breaks it down to ammonia. […] Therefore, the strip turns from yellow to green when the urease strip is exposed to urea. One strip was exposed to a solution of urea at the rate of 1 gram per litre.

T1 sequence (P07374 whole entry, looked up): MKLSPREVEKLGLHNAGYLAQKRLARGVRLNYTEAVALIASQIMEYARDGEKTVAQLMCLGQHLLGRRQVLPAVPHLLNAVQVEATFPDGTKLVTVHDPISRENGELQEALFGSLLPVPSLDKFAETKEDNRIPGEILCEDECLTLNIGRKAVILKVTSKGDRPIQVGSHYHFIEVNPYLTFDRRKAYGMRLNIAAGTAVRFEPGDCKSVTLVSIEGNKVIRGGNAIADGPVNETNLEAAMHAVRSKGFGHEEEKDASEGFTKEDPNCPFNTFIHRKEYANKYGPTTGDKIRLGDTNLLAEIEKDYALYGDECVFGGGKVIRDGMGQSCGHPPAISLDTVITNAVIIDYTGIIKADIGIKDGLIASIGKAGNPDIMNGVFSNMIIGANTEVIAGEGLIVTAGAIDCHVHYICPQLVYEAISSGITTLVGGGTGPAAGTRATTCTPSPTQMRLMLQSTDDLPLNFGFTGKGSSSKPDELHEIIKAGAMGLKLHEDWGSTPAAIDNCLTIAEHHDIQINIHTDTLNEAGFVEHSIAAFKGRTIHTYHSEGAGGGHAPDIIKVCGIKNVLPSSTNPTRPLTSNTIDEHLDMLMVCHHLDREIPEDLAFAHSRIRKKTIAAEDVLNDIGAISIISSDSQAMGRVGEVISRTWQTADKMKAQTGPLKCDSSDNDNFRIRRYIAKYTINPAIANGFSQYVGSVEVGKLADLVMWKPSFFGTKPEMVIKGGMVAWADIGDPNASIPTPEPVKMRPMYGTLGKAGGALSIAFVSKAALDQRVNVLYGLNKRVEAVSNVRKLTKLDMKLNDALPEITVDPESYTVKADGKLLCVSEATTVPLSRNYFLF

| SMILES | colour change of urease test strip (ammonia production) (urea phosphate at 5 grams per litre) | urea converted to ammonia (urea phosphate, 5 grams per litre) | colour change of urease test strip (ammonia production) (solution of urea at 1 gram per litre) | urea converted to ammonia (urea only mix, 1 gram per litre) |
| --- | --- | --- | --- | --- |
| NC(N)=O.O=P(O)(O)O [urea phosphate] | unchanged | none | – | – |
| NC(N)=O [urea] | – | – | turned from the unexposed yellow colour to a deep green | all |
